Assay results taken from ChEMBL document CHEMBL4507263, “Data for DCP probe BAY-474” (2021).

Assays:
[1] = target: 5-hydroxytryptamine receptor 1E (Homo sapiens) (UniProt P28566); details: Compound concentration 10.0 uM
[2] = target: Muscarinic acetylcholine receptor M4 (Homo sapiens) (UniProt P08173); details: Compound concentration 10.0 uM
[3] = target: 5-hydroxytryptamine receptor 1B (Homo sapiens) (UniProt P28222); details: Compound concentration 10.0 uM
[4] = target: Dual specificity mitogen-activated protein kinase kinase 4 (Mus musculus) (UniProt P47809); assay: MKK4 (m) Millipore kinase activity assay; details: Compound concentration 1.0 uM
[5] = target: 5-hydroxytryptamine receptor 2A (Homo sapiens) (UniProt P28223); details: Compound concentration 10.0 uM
Chain of 5-hydroxytryptamine receptor 2A (Homo sapiens) (P28223 whole entry): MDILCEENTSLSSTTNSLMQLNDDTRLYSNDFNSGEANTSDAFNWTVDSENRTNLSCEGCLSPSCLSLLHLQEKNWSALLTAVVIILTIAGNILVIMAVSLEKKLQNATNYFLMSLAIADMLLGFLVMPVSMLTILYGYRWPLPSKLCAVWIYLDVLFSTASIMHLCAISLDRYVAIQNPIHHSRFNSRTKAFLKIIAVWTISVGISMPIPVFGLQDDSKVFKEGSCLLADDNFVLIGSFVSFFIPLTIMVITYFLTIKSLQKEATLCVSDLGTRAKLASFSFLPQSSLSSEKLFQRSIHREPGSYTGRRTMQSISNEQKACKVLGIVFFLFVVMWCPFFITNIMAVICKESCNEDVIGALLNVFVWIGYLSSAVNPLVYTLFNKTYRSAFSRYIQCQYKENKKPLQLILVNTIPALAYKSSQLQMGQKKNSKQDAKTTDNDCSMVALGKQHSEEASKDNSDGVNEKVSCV

[6] = target: Hepatocyte growth factor receptor (Homo sapiens, UniProt P08581); assay: Met (h) Millipore kinase activity assay; details: Compound concentration 1.0 uM
[7] = target: Histamine H2 receptor (Homo sapiens) (UniProt P25021); details: Compound concentration 10.0 uM
Chain of Histamine H2 receptor (Homo sapiens) (P25021 whole entry, canonical isoform): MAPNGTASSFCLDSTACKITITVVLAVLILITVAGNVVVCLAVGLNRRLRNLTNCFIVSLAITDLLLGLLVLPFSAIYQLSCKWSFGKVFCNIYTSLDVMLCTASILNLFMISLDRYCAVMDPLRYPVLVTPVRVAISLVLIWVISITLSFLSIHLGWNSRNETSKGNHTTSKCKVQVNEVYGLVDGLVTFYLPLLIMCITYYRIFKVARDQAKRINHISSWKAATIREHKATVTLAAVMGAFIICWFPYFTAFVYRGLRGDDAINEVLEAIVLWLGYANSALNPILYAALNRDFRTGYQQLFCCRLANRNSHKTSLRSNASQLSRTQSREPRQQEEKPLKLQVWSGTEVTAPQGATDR

[8] = target: Casein kinase I isoform gamma-2 (Homo sapiens) (UniProt P78368); assay: CK1gamma2 (h) Millipore kinase activity assay; details: Compound concentration 1.0 uM
[9] = target: MAP kinase-activated protein kinase 2 (Homo sapiens) (UniProt P49137); assay: MAPKAP-K2 (h) Millipore kinase activity assay; details: Compound concentration 1.0 uM
Chain of MAP kinase-activated protein kinase 2 (Homo sapiens) (P49137 whole entry, looked up): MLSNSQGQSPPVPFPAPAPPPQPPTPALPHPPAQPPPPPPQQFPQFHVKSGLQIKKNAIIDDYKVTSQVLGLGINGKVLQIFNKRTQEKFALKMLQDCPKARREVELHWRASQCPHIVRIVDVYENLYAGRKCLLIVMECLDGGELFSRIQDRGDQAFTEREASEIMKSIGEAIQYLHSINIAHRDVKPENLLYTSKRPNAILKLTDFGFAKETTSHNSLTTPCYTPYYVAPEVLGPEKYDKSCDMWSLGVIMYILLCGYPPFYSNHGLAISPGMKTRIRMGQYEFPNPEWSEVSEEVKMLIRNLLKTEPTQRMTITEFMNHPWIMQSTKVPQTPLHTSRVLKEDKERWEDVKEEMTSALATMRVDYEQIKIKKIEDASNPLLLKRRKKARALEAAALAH

[10] = organism: Rattus norvegicus; assay: Inhibition of Rolipram at 10 µM in the Eurofins-Panlabs radioligand binding assay (Eurofins_assay_268811); assay type: protein assay; parameters: ligand concentration 1.8 nM; details: Compound concentration 10.0 uM
[11] = target: Alpha-2A adrenergic receptor (Homo sapiens) (UniProt P08913); details: Compound concentration 10.0 uM
Chain of Alpha-2A adrenergic receptor (Homo sapiens) (P08913 whole entry): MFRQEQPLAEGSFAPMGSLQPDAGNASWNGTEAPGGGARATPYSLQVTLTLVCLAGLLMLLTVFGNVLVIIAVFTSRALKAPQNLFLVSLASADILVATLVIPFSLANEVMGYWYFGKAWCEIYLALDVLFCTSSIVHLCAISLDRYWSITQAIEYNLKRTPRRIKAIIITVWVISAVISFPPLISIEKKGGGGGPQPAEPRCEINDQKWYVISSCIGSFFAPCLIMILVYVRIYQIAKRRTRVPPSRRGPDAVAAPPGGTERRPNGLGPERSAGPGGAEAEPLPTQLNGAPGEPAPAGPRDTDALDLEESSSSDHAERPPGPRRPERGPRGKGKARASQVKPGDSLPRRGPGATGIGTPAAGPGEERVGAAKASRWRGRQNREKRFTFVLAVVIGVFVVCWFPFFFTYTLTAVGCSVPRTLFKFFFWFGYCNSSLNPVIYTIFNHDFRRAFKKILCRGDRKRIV

[12] = target: T1, Muscarinic acetylcholine receptor M1 (Homo sapiens) (UniProt P11229); details: Compound concentration 10.0 uM
T1 sequence (whole entry): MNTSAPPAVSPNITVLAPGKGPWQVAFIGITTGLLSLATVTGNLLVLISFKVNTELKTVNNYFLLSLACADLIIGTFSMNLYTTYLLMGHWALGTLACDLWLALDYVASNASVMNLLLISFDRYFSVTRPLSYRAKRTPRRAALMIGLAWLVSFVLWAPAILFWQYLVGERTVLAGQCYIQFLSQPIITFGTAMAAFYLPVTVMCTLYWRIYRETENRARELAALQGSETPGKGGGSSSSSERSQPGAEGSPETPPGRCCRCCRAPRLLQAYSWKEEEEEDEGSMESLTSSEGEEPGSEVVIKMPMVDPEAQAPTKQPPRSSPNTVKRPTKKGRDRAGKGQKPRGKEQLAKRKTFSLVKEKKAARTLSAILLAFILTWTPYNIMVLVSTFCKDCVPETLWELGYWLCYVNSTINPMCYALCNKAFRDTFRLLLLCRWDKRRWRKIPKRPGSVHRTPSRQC

[13] = target: 5-hydroxytryptamine receptor 7 (Homo sapiens) (UniProt P34969); details: Compound concentration 10.0 uM
Chain of 5-hydroxytryptamine receptor 7 (Homo sapiens) (P34969 whole entry): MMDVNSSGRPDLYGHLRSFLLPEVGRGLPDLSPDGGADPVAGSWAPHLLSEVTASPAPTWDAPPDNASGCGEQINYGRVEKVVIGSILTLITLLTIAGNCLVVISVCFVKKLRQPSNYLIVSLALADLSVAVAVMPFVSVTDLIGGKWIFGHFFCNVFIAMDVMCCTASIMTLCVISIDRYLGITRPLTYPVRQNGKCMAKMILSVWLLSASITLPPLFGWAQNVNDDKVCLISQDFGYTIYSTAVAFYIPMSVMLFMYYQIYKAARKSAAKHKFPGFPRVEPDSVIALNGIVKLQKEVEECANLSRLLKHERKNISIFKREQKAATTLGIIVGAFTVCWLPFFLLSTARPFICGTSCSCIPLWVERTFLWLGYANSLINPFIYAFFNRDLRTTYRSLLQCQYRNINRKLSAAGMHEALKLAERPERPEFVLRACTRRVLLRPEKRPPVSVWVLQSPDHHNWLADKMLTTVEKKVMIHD

[14] = target: Mu-type opioid receptor (Homo sapiens) (UniProt P35372); details: Compound concentration 10.0 uM
Chain of Mu-type opioid receptor (Homo sapiens) (P35372 whole entry): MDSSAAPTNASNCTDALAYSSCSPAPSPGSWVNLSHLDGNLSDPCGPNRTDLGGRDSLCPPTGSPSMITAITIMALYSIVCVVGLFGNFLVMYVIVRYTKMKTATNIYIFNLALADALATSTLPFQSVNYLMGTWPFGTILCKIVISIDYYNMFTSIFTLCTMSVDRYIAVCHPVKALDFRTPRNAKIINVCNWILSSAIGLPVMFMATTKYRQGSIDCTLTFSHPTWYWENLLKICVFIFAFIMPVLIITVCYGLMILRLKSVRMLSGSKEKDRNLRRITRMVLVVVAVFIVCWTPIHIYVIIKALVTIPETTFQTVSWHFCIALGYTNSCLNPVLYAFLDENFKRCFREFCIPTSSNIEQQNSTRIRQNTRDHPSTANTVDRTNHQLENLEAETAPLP

[15] = target: Mast/stem cell growth factor receptor Kit (Homo sapiens) (UniProt P10721); assay: cKit (h) Millipore kinase activity assay; details: Compound concentration 1.0 uM
[16] = target: Beta-2 adrenergic receptor (Homo sapiens) (UniProt P07550); details: Compound concentration 10.0 uM
Chain of Beta-2 adrenergic receptor (Homo sapiens) (P07550 whole entry, looked up): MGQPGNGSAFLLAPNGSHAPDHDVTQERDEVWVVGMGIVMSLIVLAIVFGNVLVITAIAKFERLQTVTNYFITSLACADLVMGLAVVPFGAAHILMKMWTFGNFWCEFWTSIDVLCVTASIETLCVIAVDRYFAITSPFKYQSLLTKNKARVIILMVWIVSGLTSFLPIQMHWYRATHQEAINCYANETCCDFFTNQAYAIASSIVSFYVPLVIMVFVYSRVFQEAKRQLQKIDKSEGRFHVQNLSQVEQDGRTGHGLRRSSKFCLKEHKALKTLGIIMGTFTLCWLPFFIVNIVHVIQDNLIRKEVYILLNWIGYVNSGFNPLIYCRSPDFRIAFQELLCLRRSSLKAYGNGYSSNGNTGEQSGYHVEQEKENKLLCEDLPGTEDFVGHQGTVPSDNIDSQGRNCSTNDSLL

[17] = target: Vascular endothelial growth factor receptor 2 (Homo sapiens) (UniProt P35968); assay: KDR (h) Millipore kinase activity assay; details: Compound concentration 1.0 uM
[18] = target: Histamine H3 receptor (Homo sapiens) (UniProt Q9Y5N1); details: Compound concentration 10.0 uM
[19] = target: Platelet-derived growth factor receptor alpha (Homo sapiens) (UniProt P16234); assay: PDGFRalpha (h) Millipore kinase activity assay; details: Compound concentration 1.0 uM
[20] = target: Serine/threonine-protein kinase PAK 6 (Homo sapiens) (UniProt Q9NQU5); assay: PAK6 (h) Millipore kinase activity assay; details: Compound concentration 1.0 uM
Chain of Serine/threonine-protein kinase PAK 6 (Homo sapiens) (Q9NQU5 whole entry, looked up, canonical isoform): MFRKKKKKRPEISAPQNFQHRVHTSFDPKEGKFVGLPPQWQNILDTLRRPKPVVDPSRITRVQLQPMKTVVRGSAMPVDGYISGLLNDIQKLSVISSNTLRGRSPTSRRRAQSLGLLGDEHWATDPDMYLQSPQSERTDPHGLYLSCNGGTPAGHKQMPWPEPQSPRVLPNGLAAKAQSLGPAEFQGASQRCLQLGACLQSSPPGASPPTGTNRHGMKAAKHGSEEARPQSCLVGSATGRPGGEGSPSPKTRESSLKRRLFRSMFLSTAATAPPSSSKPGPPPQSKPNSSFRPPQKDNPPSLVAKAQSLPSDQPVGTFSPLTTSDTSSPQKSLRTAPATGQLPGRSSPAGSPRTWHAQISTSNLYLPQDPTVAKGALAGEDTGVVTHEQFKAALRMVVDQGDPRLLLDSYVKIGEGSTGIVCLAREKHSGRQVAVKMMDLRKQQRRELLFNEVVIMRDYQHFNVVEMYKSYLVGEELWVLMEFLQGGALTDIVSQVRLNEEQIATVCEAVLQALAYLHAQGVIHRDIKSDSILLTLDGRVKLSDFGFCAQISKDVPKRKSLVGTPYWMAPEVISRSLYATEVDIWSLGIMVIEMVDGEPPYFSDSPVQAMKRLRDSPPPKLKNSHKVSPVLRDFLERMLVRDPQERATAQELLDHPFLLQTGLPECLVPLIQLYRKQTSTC

[21] = system: Mast/stem cell growth factor receptor Kit (Homo sapiens), P10721 [D816H]; details: Compound concentration 1000.0 nM
[22] = target: Mitogen-activated protein kinase 10 (Homo sapiens) (UniProt P53779); details: Compound concentration 1000.0 nM
[23] = target: Serine/threonine-protein kinase WNK1 (Homo sapiens) (UniProt Q9H4A3); details: Compound concentration 1000.0 nM
[24] = target: LIM domain kinase 2 (Homo sapiens) (UniProt P53671); details: Compound concentration 1000.0 nM
[25] = target: Receptor tyrosine-protein kinase erbB-2 (Homo sapiens) (UniProt P04626); details: Compound concentration 1000.0 nM
[26] = system: Leucine-rich repeat serine/threonine-protein kinase 2 (Homo sapiens), Q5S007 [G2019S]; details: Compound concentration 1000.0 nM
[27] = target: Serine/threonine-protein kinase PAK 6 (Homo sapiens) (UniProt Q9NQU5); details: Compound concentration 1000.0 nM
[28] = target: Phosphorylase b kinase regulatory subunit alpha, liver isoform (Homo sapiens) (UniProt P46019); details: Compound concentration 1000.0 nM
[29] = target: Serine/threonine-protein kinase SIK1 (Homo sapiens) (UniProt P57059); details: Compound concentration 1000.0 nM
[30] = system: Phosphatidylinositol 4,5-bisphosphate 3-kinase catalytic subunit alpha isoform (Homo sapiens), P42336 [E545K]; details: Compound concentration 1000.0 nM
[31] = target: AP2-associated protein kinase 1 (Homo sapiens) (UniProt Q2M2I8); details: Compound concentration 1000.0 nM
[32] = target: Serine/threonine-protein kinase D2 (Homo sapiens) (UniProt Q9BZL6); details: Compound concentration 1000.0 nM
[33] = target: 5-hydroxytryptamine receptor 6 (Homo sapiens, UniProt P50406); assay: GPCRScan assay: inhibition of 5-HT6; parameters: radioligand conc. used [nm] 2.0 – 4.0, parental cells stable HEK
[34] = target: Serine/threonine-protein kinase MAK (Homo sapiens) (UniProt P20794); details: Compound concentration 1000.0 nM
[35] = target: MAP kinase-activated protein kinase 2 (Homo sapiens) (UniProt P49137); details: Compound concentration 1000.0 nM
[36] = system: Epidermal growth factor receptor (Homo sapiens), P00533 [UNDEFINED MUTATION]; details: Compound concentration 1000.0 nM
[37] = target: Citron Rho-interacting kinase (Homo sapiens) (UniProt O14578); details: Compound concentration 1000.0 nM
[38] = target: Dual specificity protein kinase CLK4 (Homo sapiens) (UniProt Q9HAZ1); details: Compound concentration 1000.0 nM
[39] = target: Serine/threonine-protein kinase LATS1 (Homo sapiens) (UniProt O95835); details: Compound concentration 1000.0 nM
[40] = target: Serine/threonine-protein kinase 17B (Homo sapiens) (UniProt O94768); details: Compound concentration 1000.0 nM

Chain of 5-hydroxytryptamine receptor 1B (Homo sapiens) (P28222 whole entry): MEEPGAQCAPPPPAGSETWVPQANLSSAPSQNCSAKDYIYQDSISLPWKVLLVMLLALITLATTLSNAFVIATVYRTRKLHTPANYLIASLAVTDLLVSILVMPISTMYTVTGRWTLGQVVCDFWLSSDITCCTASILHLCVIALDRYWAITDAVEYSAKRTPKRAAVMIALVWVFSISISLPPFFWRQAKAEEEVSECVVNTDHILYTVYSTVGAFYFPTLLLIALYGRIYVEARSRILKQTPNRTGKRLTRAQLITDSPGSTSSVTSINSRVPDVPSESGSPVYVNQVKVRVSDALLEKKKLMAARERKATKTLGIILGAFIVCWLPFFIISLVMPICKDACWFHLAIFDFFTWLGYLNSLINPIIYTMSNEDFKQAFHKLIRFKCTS
Chain of 5-hydroxytryptamine receptor 1E (Homo sapiens) (P28566 whole entry): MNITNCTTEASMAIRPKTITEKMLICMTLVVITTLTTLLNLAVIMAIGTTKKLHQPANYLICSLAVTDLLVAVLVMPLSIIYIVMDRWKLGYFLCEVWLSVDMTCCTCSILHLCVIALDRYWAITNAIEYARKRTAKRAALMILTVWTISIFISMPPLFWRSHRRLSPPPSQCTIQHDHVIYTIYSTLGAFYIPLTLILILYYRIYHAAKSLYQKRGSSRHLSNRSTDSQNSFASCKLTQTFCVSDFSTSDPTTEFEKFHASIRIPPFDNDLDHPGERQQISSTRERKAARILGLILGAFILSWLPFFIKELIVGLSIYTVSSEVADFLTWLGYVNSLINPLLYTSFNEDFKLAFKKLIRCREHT
Chain of Muscarinic acetylcholine receptor M4 (Homo sapiens) (P08173 whole entry): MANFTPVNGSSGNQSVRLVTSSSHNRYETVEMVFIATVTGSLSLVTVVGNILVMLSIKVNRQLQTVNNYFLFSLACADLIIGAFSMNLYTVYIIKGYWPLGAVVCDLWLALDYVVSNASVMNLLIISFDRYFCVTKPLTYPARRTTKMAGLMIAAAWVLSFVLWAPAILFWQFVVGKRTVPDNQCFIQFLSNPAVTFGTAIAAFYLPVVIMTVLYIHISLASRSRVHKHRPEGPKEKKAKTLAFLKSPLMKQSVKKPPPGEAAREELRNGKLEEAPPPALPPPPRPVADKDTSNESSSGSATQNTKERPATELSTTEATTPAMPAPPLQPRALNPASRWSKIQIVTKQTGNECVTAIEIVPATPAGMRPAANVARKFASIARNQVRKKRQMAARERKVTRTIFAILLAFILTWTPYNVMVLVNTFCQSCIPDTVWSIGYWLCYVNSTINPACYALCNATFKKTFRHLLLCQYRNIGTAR

**Q.** With `CC1=C(C#N)C(c2ccc3[nH]nc(C)c3c2)C(C#N)=C(C)N1` [BAY-474] as the compound, how does the inhibition [1] read?
**A.** 8.21%

**Q.** And the inhibition [2]?
**A.** 5.33%

**Q.** What about the inhibition [3] of the same compound?
**A.** 0.48%

**Q.** What about the inhibition [4] of the same compound?
**A.** 31%

**Q.** What about the inhibition [5] of the same compound?
**A.** 8.75%

**Q.** And the inhibition [6]?
**A.** 82%

**Q.** And the inhibition [7]?
**A.** 12.6%

**Q.** What about the inhibition [8] of the same compound?
**A.** 19%

**Q.** And the inhibition [9]?
**A.** -2%

**Q.** And the inhibition [10]?
**A.** 10%

**Q.** What about the inhibition [11] of the same compound?
**A.** -3.48%

**Q.** And the inhibition [12]?
**A.** 13.9%

**Q.** And the inhibition [13]?
**A.** -0.97%

**Q.** And the inhibition [14]?
**A.** 2.64%

**Q.** What about the inhibition [15] of the same compound?
**A.** -7%

**Q.** What about the inhibition [16] of the same compound?
**A.** 20.2%

**Q.** What about the inhibition [17] of the same compound?
**A.** 4%

**Q.** And the inhibition [18]?
**A.** -3.35%

**Q.** What about the inhibition [19] of the same compound?
**A.** -2%

**Q.** And the inhibition [20]?
**A.** 7%

**Q.** Which results are given for `CC1=C(C#N)[C@@H](c2ccc3[nH]nc(C)c3c2)C(C#N)=C(c2ccc(Cl)cc2)N1` [BAY-827]?
**A.** inhibition [1]: -3.84%; residual activity [21]: 84.3%; residual activity [22]: 68.8%; residual activity [23]: 100%; residual activity [24]: 91.1%; inhibition [2]: 13%; inhibition [3]: 17.2%; inhibition [5]: 5.76%; residual activity [25]: 100%; residual activity [26]: 79.5%; residual activity [27]: 100%; residual activity [28]: 100%; inhibition [7]: 14.1%; inhibition [11]: 7.83%; inhibition [12]: 8.17%; inhibition [13]: 8.19%; inhibition [14]: -0.0207%; residual activity [29]: 100%; residual activity [30]: 74.9%; residual activity [31]: 100%; residual activity [32]: 100%; inhibition [16]: -0.813%; Ki [33]: 674 nM; residual activity [34]: 85.1%; residual activity [35]: 100%; residual activity [36]: 100%; residual activity [37]: 100%; residual activity [38]: 100%; residual activity [39]: 100%; residual activity [40]: 100%
